Experimental data published in patent US10202360B2 (CELGENE QUANTICEL RESEARCH, INC., priority 2016, dated 2019).
One block for each compound: values may come before it.

Molecular target: CREBBP (Homo sapiens (Human), UniProt Q92793)
Assay: In vitro enzyme inhibition assay - CREBBP inhibition (AlphaScreen, biotinylated H4-tetraacetyl peptide)
Assay type: binding
Conditions: Table 28; AlphaScreen, H4-tetraacetyl peptide
Summary of the method: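 His-tagged CREBBP expressed in E. coli (50 nM final) incubated with biotinylated H4K5/8/12/16(Ac) peptide (20 nM final) in HEPES pH 7.3 buffer, 0.4% DMSO, 20 min at room temperature.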

Chain of CREBBP (Q92793 1081-1197): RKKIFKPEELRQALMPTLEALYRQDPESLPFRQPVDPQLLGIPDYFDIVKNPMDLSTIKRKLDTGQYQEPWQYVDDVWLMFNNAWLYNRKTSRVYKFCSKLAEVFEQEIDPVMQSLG

Compound: Cc1cccc(C#N)c1Oc1nc(NS(=O)(=O)CCCF)cc(-c2cc(C)c(=O)n(C)c2)n1 [Example 115, 3-Fluoro-propane-1-sulfonic acid [2-(2-cyano-6-methyl-phenoxy)-6-(1,5-dimethyl-6-oxo-1,6-dihydro-pyridin-3-yl)-pyrimidin-4-yl]-amide]
IC50: < 500 nM

Compound: CCCS(=O)(=O)Nc1cc(-c2cc(C)c(=O)n(C3CC3)c2)nc(Oc2c(C)cccc2C)n1 [Example 54, Propane-1-sulfonic acid [6-(1-cyclopropyl-5-methyl-6-oxo-1,6-dihydro-pyridin-3-yl)-2-(2,6-dimethyl-phenoxy)-pyrimidin-4-yl]-amide]
IC50: 500 to 5000 nM

Compound: Cc1cc(-c2cc(NS(=O)(=O)C(C)C)nc(Oc3cccc4ccn(C)c34)n2)cn(C)c1=O [Example 57, Propane-2-sulfonic acid [6-(1,5-dimethyl-6-oxo-1,6-dihydro-pyridin-3-yl)-2-(1-methyl-1H-indol-7-yloxy)-pyrimidin-4-yl]-amide]
IC50: < 500 nM

Compound: CCCS(=O)(=O)Nc1cc(-c2cc(C)c(=O)n(C)c2)nc(Oc2ccncc2C)n1 [Example 111, Propane-1-sulfonic acid [6-(1,5-dimethyl-6-oxo-1,6-dihydro-pyridin-3-yl)-2-(3-methyl-pyridin-4-yloxy)-pyrimidin-4-yl]-amide]
IC50: 500 to 5000 nM

Compound: CCCS(=O)(=O)Nc1nc(Oc2c(C)cccc2F)nc(-c2cc(C)c(=O)n(C)c2)c1C [Example 161, Propane-1-sulfonic acid [6-(1,5-dimethyl-6-oxo-1,6-dihydro-pyridin-3-yl)-2-(2-fluoro-6-methyl-phenoxy)-5-methyl-pyrimidin-4-yl]-amide]
IC50: < 500 nM

Compound: CCCS(=O)(=O)Nc1cc(-c2ccc(=O)n(C)c2)nc(OC2CCCCC2)n1 [Example 245, Propane-1-sulfonic acid [2-cylcohexyloxy-6-(1-methyl-6-oxo-1,6-dihydro-pyridin-3-yl)-pyrimidin-4-yl]-amide]
IC50: < 500 nM

Compound: CCCS(=O)(=O)Nc1nc(Oc2c(C)cccc2F)nc(-c2ccc(=O)n(C)c2)n1 [Example 177, Propane-1-sulfonic acid [4-(2-fluoro-6-methyl-phenoxy)-6-(1-methyl-6-oxo-1,6-dihdyro-pyridin-3-yl)-[1,3,5]triazin-2-yl]-amide]
IC50: < 500 nM

Compound: CCCCS(=O)(=O)Nc1cc(-c2cc(C)c(=O)n(C)c2)nc(Oc2cc(C#N)ccc2OC)n1 [Example 10, Butane-1-sulfonic acid [2-(5-cyano-2-methoxy-phenoxy)-6-(1,5-dimethyl-6-oxo-1,6-dihydro-pyridin-3-yl)-pyrimidin-4-yl]-amide]
IC50: < 500 nM

Compound: CCCS(=O)(=O)Nc1nc(Oc2c(C)cccc2F)nc(-c2cc(C)c(=O)n(C)c2)n1 [Example 173, Propane-1-sulfonic acid [4-(1,5-dimethyl-6-oxo-1,6-dihydro-pyridin-3-yl)-6-(2-fluoro-6-methyl-phenoxy)-[1,3,5]triazin-2-yl]-amide]
IC50: < 500 nM

Compound: CCCCS(=O)(=O)Nc1cc(-c2cc(C)c(=O)n(C)c2)nc(Oc2c(C)cccc2C#N)n1 [Example 22, Butane-1-sulfonic acid [2-(2-cyano-6-methyl-phenoxy)-6-(1,5-dimethyl-6-oxo-1,6-dihydro-pyridin-3-yl)-pyrimidin-4-yl]-amide]
IC50: < 500 nM

Compound: Cc1cccc(C#N)c1Oc1nc(NS(=O)(=O)C(C)C)cc(-c2ccc(=O)n(C)c2)n1 [Example 110, Propane-2-sulfonic acid [2-(2-cyano-6-methyl-phenoxy)-6-(1-methyl-6-oxo-1,6-dihydro-pyridin-3-yl)-pyrimidin-4-yl]-amide]
IC50: < 500 nM

Compound: Cc1cccc(Cl)c1Oc1nc(NS(=O)(=O)CCC(C)C)cc(-c2ccc(=O)n(C)c2)n1 [Example 252, 3-Methyl-butane-1-sulfonic acid [2-(2-chloro-6-methyl-phenoxy)-6-(1-methyl-6-oxo-1,6-dihydro-pyridin-3-yl)-pyrimidin-4-yl]-amide]
IC50: < 500 nM

Compound: Cc1ccc(CNc2cc(-c3ccc(=O)n(C)c3)nc(Oc3c(C)cccc3F)n2)cn1 [Example 290, 5-(2-(2-fluoro-6-methylphenoxy)-6-(((6-methylpyridin-3-yl)methyl)amino)pyrimidin-4-yl)-1-methylpyridin-2(1H)-one]
IC50: < 500 nM

Compound: CCCC(C)S(=O)(=O)Nc1cc(-c2ccc(=O)n(C)c2)nc(Oc2c(C)cccc2F)n1 (stereo not drawn) [Example 241, Pentane-2-sulfonic acid [2-(2-fluoro-6-methyl-phenoxy)-6-(1-methyl-6-oxo-1,6-dihydro-pyridin-3-yl)-pyrimidin-4-yl]-amide]
IC50: < 500 nM

Compound: CCCS(=O)(=O)Nc1cc(-c2ccc(=O)n(C)c2)nc(Oc2c(C)cccc2Cl)n1 [Example 103, Propane-1-sulfonic acid [2-(2-chloro-6-methyl-phenoxy)-6-(1-methyl-6-oxo-1,6-dihydro-pyridin-3-yl)-pyrimidin-4-yl]-amide]
IC50: < 500 nM

Compound: Cc1cc(-c2cc(NS(=O)(=O)C(C)C)nc(OCC(C)C)n2)cn(C)c1=O [Example 152, N-(6-(1,5-dimethyl-6-oxo-1,6-dihydropyridin-3-yl)-2-isobutoxypyrimidin-4-yl)propane-2-sulfonamide]
IC50: < 500 nM

Compound: CCCS(=O)(=O)Nc1cc(-c2cc(C)c(=O)n(C)c2)nc(Oc2c(C)cccc2Cl)n1 [Example 101, Propane-1-sulfonic acid [2-(2-chloro-6-methyl-phenoxy)-6-(1,5-dimethyl-6-oxo-1,6-dihydro-pyridin-3-yl)-pyrimidin-4-yl]-amide]
IC50: < 500 nM

Compound: CCC[C@@H](C)Nc1cc(-c2ccc(=O)n(C)c2)nc(Oc2c(C)cccc2C#N)n1 [Example 317, (R)-3-Methyl-2-[4-(1-methyl-butylamino)-6-(1-methyl-6-oxo-1,6-dihydro-pyridin-3-yl)-pyrimidin-2-yloxy]-benzonitrile]
IC50: < 500 nM

Compound: CCS(=O)(=O)Nc1cc(-c2cc(C)c(=O)n(C)c2)nc(Cc2ccc(F)cc2F)n1 [Example 94, Ethanesulfonic acid [2-(2,4-difluoro-benzyl)-6-(1,5-dimethyl-6-oxo-1,6-dihydro-pyridin-3-yl)-pyrimidin-4-yl]-amide]
IC50: < 500 nM

The next lines start with the values.

IC50: < 500 nM
Compound: Cc1cccc(C)c1Oc1nc(C#N)cc(-c2cc(C)c(=O)n(C)c2)n1 [Example 335, 6-(1,5-dimethyl-6-oxo(3-hydropyridyl))-2-(2,6-dimethylphenoxy)pyrimidine-4-carbonitrile]

IC50: < 500 nM
Compound: Cc1cccc(Cl)c1Oc1nc(N)cc(-c2ccc(=O)n(C)c2)n1 [Example 333, 5-[6-Amino-2-(2-chloro-6-methyl-phenoxy)-pyrimidin-4-yl]-1-methyl-1H-pyridin-2-one]

IC50: < 500 nM
Compound: CCCCS(=O)(=O)Nc1cc(-c2ccc(=O)n(C)c2)nc(Oc2c(F)ccc(F)c2C)n1 [Example 350, N-(2-(3,6-difluoro-2-methylphenoxy)-6-(1-methyl-6-oxo-1,6-dihydropyridin-3-yl)pyrimidin-4-yl)butane-1-sulfonamide]

IC50: < 500 nM
Compound: Cc1cc(-c2cc(NS(=O)(=O)C(C)C)nc(Oc3ccc(F)cc3F)n2)cn(CC2CC2)c1=O [Example 49, Propane-2-sulfonic acid [6-(1-cyclopropylmethyl-5-methyl-6-oxo-1,6-dihydro-pyridin-3-yl)-2-(2,4-difluoro-phenoxy)-pyrimidin-4-yl]-amide]

IC50: < 500 nM
Compound: CCNc1cc(-c2cc(C)c(=O)n(C)c2)nc(Oc2c(C)cccc2F)n1 [Example 295, 5-[6-Ethylamino-2-(2-fluoro-6-methyl-phenoxy)-pyrimidin-4-yl]-1,3-dimethyl-1H-pyridin-2-one]

IC50: < 500 nM
Compound: CCNc1cc(-c2ccc(=O)n(C)c2)nc(Oc2c(C)cccc2F)n1 [Example 291, 5-[6-Ethylamino-2-(2-fluoro-6-methyl-phenoxy)-pyrimidin-4-yl]-1-methyl-1H-pyridin-2-one]

IC50: < 500 nM
Compound: CCCCS(=O)(=O)Nc1cc(-c2cc(Cl)c(=O)n(C)c2)nc(Oc2c(C)cccc2C#N)n1 [Example 114, Butane-1-sulfonic acid [6-(5-chloro-1-methyl-6-oxo-1,6-dihydro-pyridin-3-yl)-2-(2-cyano-6-methyl-phenoxy)-pyrimidin-4-yl]-amide]

IC50: < 500 nM
Compound: CCCCS(=O)(=O)Nc1cc(-c2ccc(=O)n(C)c2)nc(Oc2c(F)cccc2CC)n1 [Example 337, N-(2-(2-ethyl-6-fluorophenoxy)-6-(1-methyl-6-oxo-1,6-dihydropyridin-3-yl)pyrimidin-4-yl)butane-1-sulfonamide]

IC50: < 500 nM
Compound: CCC[C@H](C)S(=O)(=O)Nc1cc(-c2ccc(=O)n(C)c2)nc(Oc2c(C)cccc2Cl)n1 [Example 217, (2S)-Pentane-2-sulfonic acid [2-(2-chloro-6-methyl-phenoxy)-6-(1-methyl-6-oxo-1,6-dihydro-pyridin-3-yl)-pyrimidin-4-yl]-amide]

IC50: < 500 nM
Compound: CC[C@@H](C)S(=O)(=O)Nc1cc(-c2ccc(=O)n(C)c2)nc(Oc2c(F)cccc2Cl)n1 [Example 207, Butane-(2R)-sulfonic acid [2-(2-chloro-6-fluoro-phenoxy)-6-(1-methyl-6-oxo-1,6-dihydro-pyridin-3-yl)-pyrimidin-4-yl]-amide]

IC50: < 500 nM
Compound: Cc1cc(-c2cc(S(=O)(=O)C(C)C)nc(Oc3ccc(F)cc3F)n2)cn(C)c1=O [Example 134, 5-[2-(2,4-Difluoro-phenoxy)-6-(propane-2-sulfonyl)-pyrimidin-4-yl]-1,3-dimethyl-1H-pyridin-2-one]

IC50: < 500 nM
Compound: Cc1cc(-c2cc(S(C)(=O)=O)nc(Oc3ccc(F)cc3F)n2)cn(C)c1=O [Example 132, 5-[2-(2,4-Difluoro-phenoxy)-6-methanesulfonyl-pyrimidin-4-yl]-1,3-dimethyl-1H-pyridin-2-one]

IC50: < 500 nM
Compound: CCCS(=O)(=O)Nc1cc(-c2cc(C)c(=O)n(C)c2)nc(Oc2c(Cl)cccc2CC)n1 [Example 42, Propane-1-sulfonic acid [2-(2-chloro-6-ethyl-phenoxy)-6-(1,5-dimethyl-6-oxo-1,6-dihydro-pyridin-3-yl)-pyrimidin-4-yl]-amide]

IC50: < 500 nM
Compound: CCCCS(=O)(=O)Nc1cc(-c2cc(C)c(=O)n(C)c2)nc(Oc2c(C)nn(C)c2C)n1 [Example 88, N-(6-(1,5-dimethyl-6-oxo-1,6-dihydropyridin-3-yl)-2-((1,3,5-trimethyl-1H-pyrazol-4-yl)oxy)pyrimidin-4-yl)butane-1-sulfonamide]
